Measurements reported in patent US20040210959A1, “A Novel Method for Production of Transformed Dihaploid Corn Plants” (MONSANTO TECHNOLOGY LLC, priority 2003, published 2004).

Assays:
[1] = tested on: corn line D haploid callus; test: Chromosome doubling of haploid callus with colchicine; ploidy of regenerated plants by flow cytometry; type: cell-based; conditions: 3 days; for Diploid plants / Haploid plants / Tetraploid plants: 0.025% colchicine
Description: When a sufficient amount of transgenic callus has grown (approximately 0.25 g), the haploid callus can be doubled to produce dihaploid callus. The callus can be transferred to a 100×20 mm petri plate that contains a structure for supporting callus in a liquid medium such as three filter papers or 2 pieces of 100% acrylic felt. Those of skill in the art are aware of the numerous modifications to liquid media for supporting cultured tissues. To the Petri dish can be added a suitable culture medium lacking selection agents but containing 0.025% colchicine or other chromosome doubling agents such as Oryzalin, pronamide, or APM (amiprophos-methyl) as known to one of skill in the art (i.e., Wan et al., Theor. Appl. Genet., 81: 205-211, 1991). Enough medium and chromosome doubling agent is added to the Petri dish to keep the callus support moist, but not so much that it covers the callus. The callus is then incubated at 28° C. for 3 days in the dark.
After the co-cultivation, the callus pieces were transferred onto two pieces of 2cm^2×1 mm thick 100% acrylic felt with approximately 25 mL liquid MSW57 (Table 3) supplemented with 750 mg/L carbenicillin and 100 mg/L paromomycin in petri dishes (100 mm×25 mm) with 16 calli per plate. The plates were kept in a dark culture room at 28° C. for approximately 7-10 days after which the old medium was removed by aspiration and fresh selection medium was added to the plates. After two 10-day selection periods, the old medium was removed by aspiration and replaced with fresh MSW57 medium containing 0.025% colchicine. The tissues remained on the colchicine medium for 3 days after which the colchicine medium was removed by aspiration and replaced with fresh selection medium containing 750 mg/L carbenicillin and 100 mg/L paromomycin.
After an additional two 10-day selection periods on selection medium, the cultures were moved to a culture room with 16-h light/8-h dark photoperiod at 28° C. and the liquid medium was replaced with liquid MS-6BA medium (Table 3) with 100 mg/L paromomycin and 500 mg/L carbenicillin. After 7 days, the callus pieces were transferred onto the second regeneration medium, a hormone-free MS-based medium (MSOD, Table 3) with 100 mg/L paromomycin in petri dishes (100 mm×25 mm). In another 2 weeks, the callus pieces that had shoots regenerated or were still alive were transferred onto the same hormone-free medium in Phytatrays for further growth. Regenerated plants (R0) when they reached to the top of Phytatrays and had one or more healthy roots were moved to soil in peat pots in a growth chamber. In 7 to 10 days, they were transplanted into 12-in pots after determining by flow cytometry that they were doubled haploids. Using this procedure, 23 transgenic events were produced from a total of 528 pieces of callus exposed to Agrobacterium and selection on paromomycin (Table 6).

[2] = tested on: immature embryos and callus from inbred X KHI/pehA crosses; test: Negative selection of pehA-containing immature embryos/callus on callus induction medium with glyceryl glyphosate; type: cell-based, corn; conditions: 10 to 14 days on callus induction medium; glyceryl glyphosate 0 to 5 mM
Description: An efficient identification of corn haploid immature embryos, and callus derived from them, can be achieved by using the negative selectable marker gene pehA (phosphonate monoesterase). Cells that express the pehA gene convert the non-toxic glycerol glyphosate to toxic glyphosate and subsequently die. It is understood, however, that other negative selectable marker genes such as cytosine deaminase (which converts 5-fluorocytosine to 5-fluorouracil, which is toxic to cell growth [Plant Cell Reports 2001; 20:738-743]) may also be used equally effectively.
Inbred lines selected for the production of haploid immature embryos or callus can be pollinated with KHI that has been transformed with, and is homozygous for, the selectable marker gene pehA. After culturing on media containing glyceryl glyphosate, diploid (pehA containing) explants fail to grow, whereas maternal haploid explants produce callus typical of the maternal inbred.
Inbred lines selected for the production of haploid immature embryos or callus were pollinated with KHI that had been transformed with, and was homozygous for, the selectable marker gene pehA. The resulting ears were harvested when their embryos were 1.25 to 2.25 mm in size. Immature embryos were plated on suitable culture media to induce the desired type of callus. […]

SMILES | doubling chromosomes of haploid callus ([1]; corn line D haploid callus, MSW57 medium with 0.025% colchicine) | Diploid plants ([1]; haploid callus line S33-B2) [%] | Haploid plants ([1]; haploid callus line S33-B2) [%] | Diploid plants ([1]; haploid callus line S41-A1) [%] | Haploid plants ([1]; haploid callus line S41-A1) [%] | Diploid plants ([1]; haploid callus line S42-B4) [%] | Haploid plants ([1]; haploid callus line S42-B4) [%] | Tetraploid plants ([1]; haploid callus line S42-B4) [%] | Diploid plants ([1]; haploid callus line S43-B1) [%] | Haploid plants ([1]; haploid callus line S43-B1) [%] | Tetraploid plants ([1]; haploid callus line S43-B1) [%] | Diploid plants ([1]; haploid callus line S49-B1) [%] | Haploid plants ([1]; haploid callus line S55-B1) [%] | Tetraploid plants ([1]; haploid callus line S55-B1) [%] | growth of diploid (pehA containing) immature embryos [2] | growth of maternal haploid immature embryos [2]
COc1cc2c(c(OC)c1OC)-c1ccc(OC)c(=O)cc1[C@@H](NC(C)=O)CC2 [colchicine] | effective in doubling chromosomes | 67 | 33 | 50 | 50 | 33 | 33 | 33 | 50 | 17 | 33 | 100 | 33 | 67 |  | 
O=C(O)CNCP(=O)(O)OCC(O)CO (stereo not shown) [glyceryl glyphosate] |  |  |  |  |  |  |  |  |  |  |  |  |  |  | failed to grow | produced callus typical of maternal inbred
